Experiments:
[1] = tested on: primary human cardiac fibroblasts (HCF); assay: NECA-induced release of IL-6, collagen, ST-2, PAPPA and expression of fibrotic markers in human cardiac fibroblasts (Example 2); type: cell-based; conditions: antagonist with NECA
Protocol: Real-time RT-PCR was performed as published using Stratagene PCR equipment (La Jolla, Calif.). Zhong H., et al., “A2B adenosine receptors increase cytokine release by bronchial smooth muscle cells,” American Journal of Respiratory Cell and Molecular Biology, 30(1): 118-125 (2004).
Expression of AdoR, α-smooth muscle actin and α-1 pro-collagen was determined using real-time RT-PCR. The concentration of IL-6, soluble ST-2 and PAPPA (Pregnancy-associated plasma protein A) in the cell supernatants were measured using ELISA, and the concentration of soluble collagen were determined using Sircol™ collagen assay.

[2] = tested on: acute myocardial infarction in the mouse (male ICR mice, coronary artery ligation); assay: Cardiac remodeling after coronary artery ligation in ICR mice (Example 3); type: in vivo
Protocol: Male ICR mice underwent coronary artery ligation or sham surgery (N=8-10 per group). A selective A2B antagonist, Compound A 4 mg/kg in a formulated dosing suspension, every 12 hours i.p., was given starting immediately after the surgery and continued for 14 days. Transthoracic echocardiography was performed prior to surgery and then 7, 14 and 28 days later. A subgroup of mice was sacrificed 72 hours after surgery and the activity of caspase-1, a key proinflammatory mediator, was measured in the cardiac tissue.

[3] = tested on: CD1 mice with experimental AMI (permanent coronary artery ligation); assay: Transthoracic echocardiography of cardiac remodeling after AMI (Example 4); type: in vivo, mouse
Protocol: Adult out-bred male CD1 mice (8-12 weeks of age) were supplied by Harlan Sprague Dawley (Indianapolis, Ind.). The experiments were conducted under the guidelines of laboratory animals for biomedical research published by National Institutes of Health (No. 85-23, revised 1996). The study protocol was approved by the Virginia Commonwealth University Institutional Animal Care and Use Committee. Experimental AMI was induced by permanent coronary artery ligation in order to induce a large non-reperfused infarct involving approximately 30% of the left ventricle and leading to an ischemic dilated cardiomyopathy (Mezzaroma et al. Proc Natl Acad Sci 2011—in press and Abbate et al. Circulation 2008; 117:2670-83). Briefly, mice were orotracheally intubated under anesthesia (pentobarbital 50 to 70 mg/kg), placed in the right lateral decubitus position, then subjected to a left thoracotomy, pericardiectomy, and ligation of the proximal left coronary artery. The chest was closed and the animals were allowed to recover. The mice surviving surgery were randomly assigned to the different groups of treatment (N=6-15 per group). Sham operations were performed wherein animals underwent the same surgical procedure without coronary artery ligation (N=4-8 per group).
The A2B AdoR antagonist, Compound A, was obtained from Gilead Sciences, Foster City, Calif. Mice were randomly assigned to treatment with Compound A (4 mg/kg) or matching dose of vehicle administered intraperitoneally (final volume 0.13 mL) every 12 hours for 14 days starting immediately after coronary artery ligation surgery. An additional group of mice received a lower dose of Compound A (2 mg/kg) to explore a dose-response relationship. Two additional groups of mice received Compound A (4 mg/kg) starting 1 hour after surgery to simulate a clinical scenario of treatment delay. […]
All mice underwent transthoracic echocardiography at baseline (before surgery), and at 7, 14 and 28 days after surgery (prior to sacrifice). […] This example measured the left ventricular (LV) end-diastolic and end-systolic areas at B-Mode and the LV end-diastolic diameter (LVEDD), LV end-systolic diameters (LVESD), LV anterior wall diastolic thickness (LVAWDT), and LV posterior wall diastolic thickness (LVPWDT) at M-Mode, as previously described (Abbate et al. Circulation 2008; 117:2670-83; Toldo et al. PloS One 2011; 6:e18102) and according to the American Society of Echocardiography recommendations (Gardin et al. J Am Soc Echocardiogr 2002; 15:272-90). LV fractional shortening (FS), LV ejection fraction (EF), LV mass and eccentricity (LVEDD/LVPWDT ratio) were calculated (Abbate et al. Circulation 2008; 117:2670-83; Toldo et al. PloS One 2011; 6:e18102; Gardin et al. J Am Soc Echocardiogr 2002; 15:272-90). The transmitral and left ventricular out flow tract Doppler spectra were recorded from an apical 4-chamber views, and the myocardial performance index (MPI or Tei index) was calculated as the […] of the isovolumetric contraction and relaxation time divided by the ejection time (Tei et al. Am J Cardiol 1995; 26:357-366). LV stroke volume was calculated using the Velocity-Time Integral (VTI) of the LV outflow tract flow multiplied by the LV outflow tract area, and cardiac output was calculated multiplying LV stroke volume by the heart rate (Abbate et al. Circulation 2008; 117:2670-83; Toldo et al. PloS One 2011; 6:e18102; Gardin et al. J Am Soc Echocardiogr 2002; 15:272-90). […]

ob/ob model mice = assay: Inflammatory biomarker expression in ob/ob mice after 28-day dosing (Example 5); type: in vivo, mouse
Protocol: The A2B antagonist, Compound A (3 mg/kg/day or 10 mg/kg/day), was given to 6 weeks old ob/ob model mice for 28 days. At the end of the 28-day dosing, expression of a number of inflammatory biomarkers, MCP-1, IL-1b, IL-2 and IL-6, were measured in these mice as compared to control (vehicle).

[4] = echocardiography, 4 mg/kg i.p. every 12 hours for 14 days, vs vehicle
[5] = 3 mg/kg/day or 10 mg/kg/day for 28 days, vs vehicle

CCCn1c(=O)c2[nH]c(-c3cnn(Cc4cccc(C(F)(F)F)c4)c3)nc2n(CC)c1=O [Compound A, 3-ethyl-1-propyl-8-(1-(3-(trifluoromethyl)benzyl)-1H-pyrazol-4-yl)-1H-purine-2,6(3H,7H)-dione]
effect of NECA on expression of α-1 pro-collagen [1]: completely abolished
effect of NECA on expression of α-smooth muscle actin [1]: completely abolished
effect of NECA on release of IL-6 [1]: completely abolished
effect of NECA on release of PAPPA [1]: completely abolished
effect of NECA on release of ST-2 [1]: completely abolished
effect of NECA on release of collagen [1]: completely abolished
mice that died during the 4 weeks post-surgery ([2]; 4 mg/kg i.p. every 12 hours for 14 days, vehicle 42%): 25%
caspase-1 activity in the cardiac tissue ([2]; 72 hours after surgery, 4 mg/kg i.p. every 12 hours, vs vehicle): significantly reduced
LV ejection fraction [2, 4]: increased
end-diastolic diameter [2, 4]: significantly reduced
myocardial performance index [2, 4]: significantly reduced
myocardial diastolic/systolic performance (myocardial performance index) ([3]; AMI mice): preservation
right ventricular enlargement and dysfunction ([3]; AMI mice): less
absolute difference in mean LVEF vs vehicle ([3]; LV systolic function significantly greater in Compound A group): 5%
reduction of LV enlargement after AMI ([3]; at 28 days): approximately 40%
left and right ventricular enlargement and dysfunction ([3]; every 12 hours from surgery for 14 days, at 7 days, maintained at 14 and 28 days): significant attenuation
expression of IL-1b (ob/ob model mice; [5]): went down
expression of IL-2 (ob/ob model mice; [5]): went down
expression of IL-6 (ob/ob model mice; [5]): went down
expression of MCP-1 (ob/ob model mice; [5]): went down
reduction of IL-1b expression (ob/ob model mice; 10 mg/kg/day group, 28 days): statistically significant
reduction of MCP-1 expression (ob/ob model mice; 10 mg/kg/day group, 28 days): statistically significant
